Values after ≈ are worked out from the molar mass of the structure shown. Like-named read-outs stand apart in the source and are kept apart here.
Experiments:
[1] = test system: 3 P. aeruginosa strains (APAE001, APAE002, APAE006); test: Protein binding: fold change in MIC in the presence of 2% HSA and 0.05% AGP, Geomean of 3 strains; format: cell-based, Pseudomonas aeruginosa; conditions: MIC in the presence of 2% HSA and 0.05% AGP divided by MIC in the absence; Geomean of 3 P. aeruginosa strains (APAE001, APAE002, APAE006)
Method: The effect of human serum albumin (HSA) and α-1-acid glycoprotein (AGP) from human plasma, which are known to nonspecifically bind to certain antibiotics and thereby reduce their activity (Banéres-Roquet et al. 2009 “Use of a Surface Plasmon Resonance Method to Investigate Antibiotic and Plasma Protein Interactions” Antimicrob. Agents and Chemother. 53(4):1528-1531), was assessed against 3 P. aeruginosa strains (APAE001, APAE002, APAE006). APAE001 is Pseudomonas aeruginosa ATCC27853; APAE002 is a wildtype lab strain of Pseudomonas aeruginosa known as PAM1020 or PA01. APAE006 is a strain of […]/PA01 with efflux deletions: delta mexAB-oprM::CM delta CD-oprJ::Gm delta mexEF-oprN::omega Hg. Lomovskaya, 0 et al. 1999. Use of a Genetic Approach To Evaluate the Consequences of Inhibition of Efflux Pumps in P aeruginosa. Antimicrob. Agents Chemother. 43: 1340-1346.
The standard procedure described in Susceptibility Testing was utilized with one adjustment, specifically 2% HSA and 0.05% AGP were added to the cation adjusted Mueller-Hinton Broth. The MIC for each strain of interest was then assessed in the presence and absence of HSA/AGP. Following MIC determination, the fold change in MIC was determined for each individual strain by dividing the MIC in the presence of HSA/AGP by the MIC in the absence of HSA/AGP. The protein binding Geomean was then calculated using these 3 values.

[2] = test system: bacterial isolates (clinical isolates and ATCC quality control strains); test: Minimum Inhibitory Concentrations (MICs) by broth microdilution (CLSI susceptibility testing); format: cell-based
Method: Bacterial isolates were cultivated from −70° C. frozen stocks by overnight passages at 35° C. in ambient air on Mueller-Hinton agar (Beckton Dickinson, Franklin Lakes, N.J.). Clinical isolates tested were obtained from various geographically diverse hospitals in the US and abroad (Focus Diagnostics, Herndon, Va. and JMI, North Liberty, Iowa). Quality control strains were from the American Type Culture Collection (ATCC; Rockville, Md.).
Minimum Inhibitory Concentrations (MICs) were determined by the broth microdilution method in accordance with the Clinical and Laboratory Standards Institute (CLSI) guidelines. In brief, organism suspensions were adjusted to a 0.5 McFarland standard to yield a final inoculum between 3×10^5 and 7×10^5 colony-forming units (CFU)/mL. Drug dilutions and inocula were made in sterile, cation adjusted Mueller-Hinton Broth (Beckton Dickinson). An inoculum volume of 100 μL was added to wells containing 100 μL of broth with 2-fold serial dilutions of drug. All inoculated microdilution trays were incubated in ambient air at 35° C. for 18-24 h. Following incubation, the lowest concentration of the drug that prevented visible growth (OD600 nm<0.05) was recorded as the MIC. Performance of the assay was monitored by the use of laboratory quality-control strains and levofloxacin, a compound with a defined MIC spectrum, in accordance with CLSI guidelines.

[3] = APAE1096 is a clinical isolate, broth microdilution, read-out: Minimum Inhibitory Concentrations (MICs) APAE1096
[4] = Pseudomonas aeruginosa, APAE002 is a wildtype lab strain of Pseudomonas aeruginosa known as PAM1020 or PA01, broth microdilution, read-out: Minimum Inhibitory Concentrations (MICs) APAE002
[5] = Pseudomonas aeruginosa, ATCC27853, APAE001 is Pseudomonas aeruginosa ATCC27853, broth microdilution, read-out: Minimum Inhibitory Concentrations (MICs) APAE001

Row | SMILES | Protein Binding PB (Geomean of fold change in MIC) [1] | MIC [2, 3] [µg/mL] | MIC [2, 4] [µg/mL] | MIC [2, 5] [µg/mL] | MIC ([2]; Pseudomonas aeruginosa, ATCC27853, read-out: Minimum Inhibitory Concentrations (MICs) APAE001) [µg/mL] | MIC ([2]; Pseudomonas aeruginosa, read-out: Minimum Inhibitory Concentrations (MICs) APAE002) [µg/mL] | MIC ([2]; read-out: Minimum Inhibitory Concentrations (MICs) APAE1096) [µg/mL]
1 | CC(C)(NCc1c[nH]cn1)[C@H](NC(=O)c1ccc(C#CC#CCCO)cc1)C(=O)NO [Compound 13, (S)—N-(3-((1H-imidazol-4-yl)methylamino)-1-(hydroxyamino)-3-methyl-1-oxobutan-2-yl)-4-(6-hydroxyhexa-1,3-diynyl)benzamide] | 1.4 | 1 to 8 (≈ 2.36 to 18.9 µM) | 1 to 8 (≈ 2.36 to 18.9 µM) | < 1 | – | – | –
2 | C[C@H](O)C#CC#Cc1ccc(C(=O)N[C@H](C(=O)NO)C(C)(C)N)cc1 [Compound 14, N—((S)-3-amino-1-(hydroxyamino)-3-methyl-1-oxobutan-2-yl)-4-((S)-5-hydroxyhexa-1,3-diynyl)benzamide] | 3.4 | 1 to 8 (≈ 2.91 to 23.3 µM) | < 1 | < 1 | – | – | –
3 | C[C@@H](O)C#CC#Cc1ccc(C(=O)N[C@H](C(=O)NO)C(C)(C)N)cc1 [Compound 15, N—((S)-3-amino-1-(hydroxyamino)-3-methyl-1-oxobutan-2-yl)-4-((R)-5-hydroxyhexa-1,3-diynyl)benzamide] | 2.3 | < 1 | < 1 | < 1 | – | – | –
4 | CNC(C)(C)[C@H](NC(=O)c1ccc(C#CC#C[C@H](C)O)cc1)C(=O)NO [Compound 16, N—((S)-1-(hydroxyamino)-3-methyl-3-(methylamino)-1-oxobutan-2-yl)-4-((S)-5-hydroxyhexa-1,3-diynyl)benzamide] | 3.6 | 1 to 8 (≈ 2.8 to 22.4 µM) | < 1 | < 1 | – | – | –
5 | CC(C)(N)[C@H](NC(=O)c1ccc(C#CC#CC(O)CO)cc1)C(=O)NO (stereo partly drawn) [Compound 17, N—((S)-3-amino-1-(hydroxyamino)-3-methyl-1-oxobutan-2-yl)-4-(5,6-dihydroxyhexa-1,3-diynyl)benzamide] | 1.5 | – | – | – | 1 to 8 (≈ 2.78 to 22.3 µM) | 1 to 8 (≈ 2.78 to 22.3 µM) | 8 to 16 (≈ 22.3 to 44.5 µM)
6 | CC(C)(N)[C@H](NC(=O)c1ccc(C#CC#CC(CO)CO)cc1)C(=O)NO [Compound 18, (S)—N-(3-amino-1-(hydroxyamino)-3-methyl-1-oxobutan-2-yl)-4-(6-hydroxy-5-(hydroxymethyl)hexa-1,3-diynyl)benzamide] | 1.6 | 8 to 16 (≈ 21.4 to 42.8 µM) | 1 to 8 (≈ 2.68 to 21.4 µM) | 1 to 8 (≈ 2.68 to 21.4 µM) | – | – | –
7 | CC(C)(N)[C@H](NC(=O)c1ccc(C#CC#CC(O)(CO)CCl)cc1)C(=O)NO (stereo partly drawn) [Compound 19, N—((S)-3-amino-1-(hydroxyamino)-3-methyl-1-oxobutan-2-yl)-4-(6-chloro-5-hydroxy-5-(hydroxymethyl)hexa-1,3-diynyl)benzamide] | 1.0 | 1 to 8 (≈ 2.45 to 19.6 µM) | 1 to 8 (≈ 2.45 to 19.6 µM) | < 1 | – | – | –
8 | CC(C)(N)[C@H](NC(=O)c1ccc(C#CC#CCC(O)CO)cc1)C(=O)NO (stereo partly drawn) [Compound 21, N—((S)-3-amino-1-(hydroxyamino)-3-methyl-1-oxobutan-2-yl)-4-(6,7-dihydroxyhepta-1,3-diynyl)benzamide] | 1.9 | 1 to 8 (≈ 2.68 to 21.4 µM) | 1 to 8 (≈ 2.68 to 21.4 µM) | 1 to 8 (≈ 2.68 to 21.4 µM) | – | – | –
9 | CNC(C)(C)[C@H](NC(=O)c1ccc(C#CC#CCC(O)CO)cc1)C(=O)NO (stereo partly drawn) [Compound 22, 4-(6,7-dihydroxyhepta-1,3-diynyl)-N—((S)-1-(hydroxyamino)-3-methyl-3-(methylamino)-1-oxobutan-2-yl)benzamide] | 1.6 | 1 to 8 (≈ 2.58 to 20.6 µM) | < 1 | < 1 | – | – | –
10 | CC(C)(N)[C@H](NC(=O)c1ccc(C#CC#C[C@@H]2[C@@H](CO)[C@H]2CO)cc1)C(=O)NO [Compound 23A, N—((S)-3-amino-1-(hydroxyamino)-3-methyl-1-oxobutan-2-yl)-4-(((1S,2R,3S)-2,3-bis(hydroxymethyl)cyclopropyl)buta-1,3-diynyl)benzamide] | 2.3 | 8 to 16 (≈ 20 to 40.1 µM) | 1 to 8 (≈ 2.5 to 20 µM) | 1 to 8 (≈ 2.5 to 20 µM) | – | – | –
11 | CC(C)(N)[C@H](NC(=O)c1ccc(C#CC#C[C@H]2[C@@H](CO)[C@H]2CO)cc1)C(=O)NO [Compound 23B, N—((S)-3-amino-1-(hydroxyamino)-3-methyl-1-oxobutan-2-yl)-4-(((1R,2R,3S)-2,3-bis(hydroxymethyl)cyclopropyl)buta-1,3-diynyl)benzamide] | 2.0 | 8 to 16 (≈ 20 to 40.1 µM) | 1 to 8 (≈ 2.5 to 20 µM) | 1 to 8 (≈ 2.5 to 20 µM) | – | – | –
12 | CC(C)(N)[C@H](NC(=O)c1ccc(C#CC#C[C@H]2CC2(CO)CO)cc1)C(=O)NO [Compound 24, N—((S)-3-amino-1-(hydroxyamino)-3-methyl-1-oxobutan-2-yl)-4-(((R)-2,2-bis(hydroxymethyl)cyclopropyl)buta-1,3-diynyl)benzamide] | 2.5 | 1 to 8 (≈ 2.5 to 20 µM) | 1 to 8 (≈ 2.5 to 20 µM) | 1 to 8 (≈ 2.5 to 20 µM) | – | – | –
13 | CC(C)(N)[C@H](NC(=O)c1ccc(C#CC#CC(O)C2CC2CO)cc1)C(=O)NO (stereo partly drawn) [Compound 26, N—((S)-3-amino-1-(hydroxyamino)-3-methyl-1-oxobutan-2-yl)-4-(5-hydroxy-5-(2-(hydroxymethyl)cyclopropyl)penta-1,3-diynyl)benzamide] | 6.4 | 1 to 8 (≈ 2.5 to 20 µM) | < 1 | < 1 | – | – | –
14 | CC(C)(N)[C@H](NC(=O)c1ccc(C#CC#C[C@]2(O)C[C@@H](CO)C2)cc1)C(=O)NO [Compound 27, N—((S)-3-amino-1-(hydroxyamino)-3-methyl-1-oxobutan-2-yl)-4-(((1S,3R)-1-hydroxy-3-(hydroxymethyl)cyclobutyl)buta-1,3-diynyl)benzamide] | 1.8 | 1 to 8 (≈ 2.5 to 20 µM) | < 1 | < 1 | – | – | –
15 | CC(C)(N)[C@H](NC(=O)c1ccc(C#CC#CC[C@]2(O)C[C@@H](CO)C2)cc1)C(=O)NO [Compound 28, N—((S)-3-amino-1-(hydroxyamino)-3-methyl-1-oxobutan-2-yl)-4-(5-((1S,3S)-1-hydroxy-3-(hydroxymethyl)cyclobutyl)penta-1,3-diyn-1-yl)benzamide] | 1.3 | > 16 | 1 to 8 (≈ 2.42 to 19.3 µM) | 1 to 8 (≈ 2.42 to 19.3 µM) | – | – | –
16 | CC(C)(N)[C@H](NC(=O)c1ccc(C#CC#C[C@H]2C[C@@](O)(CO)C2)cc1)C(=O)NO [Compound 29, N—((S)-3-amino-1-(hydroxyamino)-3-methyl-1-oxobutan-2-yl)-4-(((1R,3S)-3-hydroxy-3-(hydroxymethyl)cyclobutyl)buta-1,3-diynyl)benzamide] | 2.9 | 1 to 8 (≈ 2.5 to 20 µM) | < 1 | < 1 | – | – | –
17 | CC(C)(N)[C@H](NC(=O)c1ccc(C#CC#C[C@@H]2C[C@@H](O)[C@@H](O)C2)cc1)C(=O)NO [Compound 32, N—((S)-3-amino-1-(hydroxyamino)-3-methyl-1-oxobutan-2-yl)-4-(((1S,3R,4S)-3,4-dihydroxycyclopentyl)buta-1,3-diynyl)benzamide] | 5.5 | 1 to 8 (≈ 2.5 to 20 µM) | < 1 | < 1 | – | – | –
18 | CC(C)(N)[C@H](NC(=O)c1ccc(C#CC#C[C@H]2CC[C@@](O)(CO)CC2)cc1)C(=O)NO [Compound 33A, N—((S)-3-amino-1-(hydroxyamino)-3-methyl-1-oxobutan-2-yl)-4-(((1S,4R)-4-hydroxy-4-(hydroxymethyl)cyclohexyl)buta-1,3-diynyl)benzamide] | 2.6 | 8 to 16 (≈ 18.7 to 37.4 µM) | < 1 | 1 to 8 (≈ 2.34 to 18.7 µM) | – | – | –

Source: patent US20150175530A1, “ANTIBACTERIAL AGENTS” (priority 2012, published 2015)
